Holding throughout (experiment): drug sensitivity score (DSS3, normalised partial AUC of % inhibition dose-response) (DSS (score)); higher = more sensitive (stronger inhibition of viability); extreme values may be limits of the assay
For one assay, the system named is FMOC28 (patient-derived low-grade serous ovarian cancer cells). The note with it: 72 h; library: FO5A; assay format: 2D, 384-well, CellTiter-Glo. The method in brief: (§1)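 Early-passage (under 10) patient-derived ovarian cancer cells were dispensed onto 384-well flat clear-bottom plates pre-plated with compounds at five concentrations spanning a 10,000-fold range, then incubated 72 h at 37 °C, 5% CO2. Viability was read with CellTiter-Glo, and the data were processed in Breeze. The drug sensitivity score is a partial area under the percent-inhibition dose-response curve divided by the log of the upper asymptote, with higher values meaning greater sensitivity.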
For orientation: In ATP-based viability assays light output follows the ATP content of the culture.

For another assay, the system named is FMOC02_2 (patient-derived low-grade serous ovarian cancer cells). The settings on record: 72 h; library: FO5A; assay format: 2D, 384-well, CellTiter-Glo. The procedure, abridged:
as §1

The next assay deals with FMOC06 (patient-derived mucinous ovarian cancer cells). The settings on record: 72 h; library: FO5A; assay format: 2D, 384-well, CellTiter-Glo. The method in brief:
as §1

For a further assay, the system named is FMOC25_2 (patient-derived low-grade serous ovarian cancer cells). The note with it: 72 h; library: FO5A; assay format: 2D, 384-well, CellTiter-Glo. The procedure, abridged:
as §1

A further assay concerns FMOC14 (patient-derived high-grade serous ovarian cancer cells). The note with it: 72 h; library: FO5A; assay format: 2D, 384-well, CellTiter-Glo. The procedure, abridged:
as §1

A further assay deals with FMOC11 (patient-derived high-grade serous ovarian cancer cells). The note with it: 72 h; library: FO5A; assay format: 2D, 384-well, CellTiter-Glo. The method in brief:
as §1

The test system of the next assay is FMOC24 (patient-derived high-grade serous ovarian cancer cells). The settings on record: 72 h; library: FO5A; assay format: 2D, 384-well, CellTiter-Glo. The method in brief: as §1
Another assay relates to FMOC04 (patient-derived high-grade serous ovarian cancer cells). The settings on record: 72 h; library: FO5A; assay format: 2D, 384-well, CellTiter-Glo. The method in brief:
as §1

For a further assay, the system named is FMOC03 (patient-derived mucinous ovarian cancer cells). The settings on record: 72 h; library: FO5A; assay format: 2D, 384-well, CellTiter-Glo. The procedure, abridged: as §1
The next assay relates to FMOC25_1 (patient-derived low-grade serous ovarian cancer cells). The note with it: 72 h; library: FO4B; assay format: 2D, 384-well, CellTiter-Glo. The procedure, abridged: as §1
The subject of the next assay is FMOC09 (patient-derived high-grade serous ovarian cancer cells). The settings on record: 72 h; library: FO5A; assay format: 2D, 384-well, CellTiter-Glo. The procedure, abridged:
as §1

For a further assay, the system named is FMOC02_3 (patient-derived low-grade serous ovarian cancer cells). The settings on record: 72 h; library: FO5A; assay format: 2D, 384-well, CellTiter-Glo. The procedure, abridged: as §1
The test system of another assay is FMOC17 (patient-derived low-grade serous ovarian cancer cells). The note with it: 72 h; library: FO5A; assay format: 2D, 384-well, CellTiter-Glo. The procedure, abridged:
as §1

The test system of the next assay is FMOC27 (patient-derived low-grade serous ovarian cancer cells). The note with it: 72 h; library: FO5A; assay format: 2D, 384-well, CellTiter-Glo. The method in brief:
as §1

The next assay has as its system FMOC02_1 (patient-derived low-grade serous ovarian cancer cells). The note with it: 72 h; library: FO5A; assay format: 2D, 384-well, CellTiter-Glo. The procedure, abridged: as §1
Another assay has as its system FMOC22 (patient-derived mucinous ovarian cancer cells). The note with it: 72 h; library: FO5A; assay format: 2D, 384-well, CellTiter-Glo. The method in brief:
as §1

As to `Nc1cccc2c1C(=O)N(C1CCC(=O)NC1=O)C2=O` (stereo unspecified) [Pomalidomide], the drug sensitivity score in the assay on FMOC28, in the assay on FMOC02_2, in the assay with FMOC06, in the assay on FMOC25_2, with FMOC14 and in the assay on FMOC11 was 0 throughout. In addition, the drug sensitivity score with FMOC24, with FMOC04, in the assay with FMOC03, in the assay on FMOC25_1, in the assay on FMOC09 and with FMOC02_3 was 0 in each case. The drug sensitivity score with FMOC17, with FMOC27, with FMOC02_1 and in the assay with FMOC22 was 0 in each case.
Turning to `Cc1ccc(NC(=O)c2ccc(CN3CCN(C)CC3)cc2)cc1Nc1nc(-c2cccnc2)cs1` [Masitinib], the drug sensitivity score in the assay with FMOC28 was found to be 1.2; in the assay on FMOC02_2, 2.4; in the assay with FMOC06 it was 4.4; in the assay on FMOC25_2 it was 3.9; with FMOC14, 5.4; with FMOC11, 3.9. Moreover, the drug sensitivity score with FMOC24 came out at 5.6; in the assay with FMOC04 it was 0.9; in the assay on FMOC03, 3.6; in the assay with FMOC25_1 it was 2.2; in the assay on FMOC09, 2.7; with FMOC02_3 it was 4.8. Besides, the drug sensitivity score is 4.2 with FMOC17, 0 in the assay with FMOC27, 2.8 in the assay on FMOC02_1 and 2.6 with FMOC22.
For the molecule `S=C(NCc1ccc2c(c1)OCO2)N1CCN(c2ncnc3c2oc2ccccc23)CC1` [Amuvatinib], the drug sensitivity score in the assay with FMOC28 was determined as 0; with FMOC02_2 it was 0; in the assay with FMOC06 it was 0.8; in the assay with FMOC25_2, 0; with FMOC14 it was 2; in the assay with FMOC11 it was 0.7. Moreover, the drug sensitivity score stood at 0 with FMOC24; 0.3 in the assay on FMOC04; 2.6 with FMOC03; 0 in the assay on FMOC25_1; 0 in the assay with FMOC09; 0 in the assay on FMOC02_3. In addition, the drug sensitivity score is 0.3 with FMOC17, 0 in the assay on FMOC27, 0.4 in the assay with FMOC02_1 and 2.2 in the assay with FMOC22.
Take `NCC(=O)Nc1ccc(-n2nc(C(F)(F)F)cc2-c2ccc3c(ccc4ccccc43)c2)cc1`: the drug sensitivity score in the assay with FMOC28 amounted to 4.5; in the assay on FMOC02_2 it was 4.3; in the assay with FMOC06, 0; in the assay with FMOC25_2 it was 5.2; with FMOC14, 0; with FMOC11 it was 0. Further, the drug sensitivity score stood at 3.05 with FMOC24; 1.2 in the assay with FMOC04; 0.4 in the assay with FMOC03; 7.9 in the assay on FMOC25_1; 0 with FMOC09; 1.8 with FMOC02_3. Also, the drug sensitivity score is 1.9 in the assay on FMOC17, 0 with FMOC27, 6.9 with FMOC02_1 and 0.8 in the assay with FMOC22.
On to `C=C1C[C@@H]2[C@H](CC[C@]3(C)C(=O)CC[C@@H]23)[C@@]2(C)C=CC(=O)C=C12` [Exemestane], for which the drug sensitivity score in the assay with FMOC28 worked out at 0; in the assay on FMOC02_2 it was 0; in the assay on FMOC06, 0.4; in the assay with FMOC25_2, 0; with FMOC14 it was 0; in the assay on FMOC11, 0. Also, the drug sensitivity score in the assay with FMOC24 turned out to be 0.35; in the assay on FMOC04, 0; in the assay with FMOC03, 0; in the assay on FMOC25_1 it was 0; in the assay with FMOC09 it was 0; in the assay on FMOC02_3, 0. In addition, the drug sensitivity score in the assay on FMOC17, with FMOC27, in the assay on FMOC02_1 and with FMOC22 was 0 in each case.
As for `Nc1nc(F)nc2c1ncn2[C@@H]1O[C@H](CO)[C@@H](O)[C@@H]1O` [Fludarabine], the drug sensitivity score with FMOC28 was 0; in the assay with FMOC02_2, 0.5; with FMOC06, 0.9; in the assay on FMOC25_2 it was 1.9; with FMOC14, 0; in the assay on FMOC11, 0. In addition, the drug sensitivity score in the assay with FMOC24 is 0; in the assay with FMOC04, 0; in the assay on FMOC03, 0; in the assay with FMOC25_1 it was 4.3; with FMOC09 it was 0.8; in the assay with FMOC02_3, 2. For the same molecule, the drug sensitivity score in the assay with FMOC17 came to 0; with FMOC27 it was 0; in the assay with FMOC02_1, 3; in the assay on FMOC22, 1.3.
